According to patent US20200017495A1, “NOVEL HETEROCYCLIC COMPOUNDS AND THEIR USE IN PREVENTING OR TREATING BACTERIAL INFECTIONS” (priority 2017, published 2020):
Where two headings read alike, the source gives them in different places.

Key:
Assay in all cases: MIC of compounds alone and combined with antibacterials, broth microdilution (CLSI)
Format in all cases: cell-based
[1] = system: Klebsiella pneumoniae (KPN) isolates
Method in brief: (§1)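 Log-phase isolates were inoculated at a final 5.10^5 CFU/mL in cation-adjusted Mueller-Hinton broth and incubated 16-20 h at 35° C in ambient air. MIC was the lowest concentration preventing visible growth; for combinations, the antibacterial MIC was read at each compound concentration.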

[2] = system: Klebsiella oxytoca (KOX) isolates
Method in brief: as §1

[3] = system: Morganella morganii (MMO) isolates
Method in brief: as §1

[4] = system: Citrobacter freundii (CFR) isolates
Method in brief: as §1

[5] = system: Providencia rettgeri (PRE) isolates
Method in brief: as §1

With `CC1(C)S[C@@H]2[C@H](NC(=O)[C@H](N)c3ccc(O)cc3)C(=O)N2[C@H]1C(=O)O` [AMX, Amoxicillin] the MIC ([1]; strain KPN UFR78, genotype TEM-1, SHV-1, CTX-M-15, CMY-2, OXA-1, OXA-48) was greater than 256 µg/mL, the MIC ([1]; strain KPN UFR79, genotype DHA-1, OXA-1) was greater than 256 µg/mL and the MIC ([1]; strain KPN UFR80, genotype SHV-11, DHA-1, OXA-1) was greater than 256 µg/mL. The MIC ([1]; strain KPN UFR81, genotype TEM-1, SHV-1, DHA-1, OXA-48) was greater than 256 µg/mL, the MIC ([1]; strain KPN UFR162, genotype SHV-28, TEM-1, CTX-M-15, OXA-181, OXA-181, NDM-1, antibiotic alone) was greater than 128 µg/mL and the MIC ([1]; strain KPN UFR163, genotype TEM-1, SHV-1, CTX-M-15, OXA-232, OXA-9, NDM-1, qnrB1, qepA, RmtB, antibiotic alone) was greater than 128 µg/mL. It also gave an MIC ([1]; strain KPN UFR164, genotype SHV-11, CTX-M-15, OXA-1, OXA-181, NDM-1, antibiotic alone) greater than 128 µg/mL, an MIC ([1]; strain KPN UFR165, genotype TEM-1, SHV-11, CTX-M-15, OXA-1, OXA-181, NDM-1, antibiotic alone) greater than 128 µg/mL and an MIC ([1]; strain KPN UFR166, genotype TEM-1, TEM-1, CTX-M-15, OXA-181, OXA-9, NDM-1, antibiotic alone) greater than 128 µg/mL. The MIC ([1]; strain KPN UFR167, genotype TEM-1, SHV-12, CTX-M-15, OXA-9, NDM-1, antibiotic alone) was greater than 128 µg/mL, the MIC ([1]; strain KPN UFR168, genotype SHV-2, CTX-M-15, OXA-1, OXA-181, NDM-1, ArmA, antibiotic alone) was greater than 128 µg/mL and the MIC ([1]; strain KPN UFR169, genotype TEM-1, SHV-28, CTX-M-15, CMY-4, OXA-1, NDM-1, antibiotic alone) was greater than 128 µg/mL. It also gave an MIC ([1]; strain KPN UFR170, genotype TEM-1, SHV-28, CTX-M-15, CMY-6, OXA-1, OXA-9, NDM-1, antibiotic alone) greater than 128 µg/mL, an MIC ([1]; strain KPN UFR171, genotype TEM-1, SHV-28, CTX-M-15, OXA-1, OXA-10, NDM-1, RmtA, antibiotic alone) greater than 128 µg/mL and an MIC ([1]; strain KPN UFR172, genotype SHV-38, CMY-16, OXA-10, NDM-1, antibiotic alone) greater than 128 µg/mL. It also gave an MIC ([1]; strain KPN UFR215, genotype SHV-27, CTX-M-15) greater than 128 µg/mL, an MIC ([1]; strain KPN UFR216, genotype SHV-28, CTX-M-15) greater than 128 µg/mL and an MIC ([1]; strain KPN UFR217, genotype TEM-1, SHV-1, CTX-M-15) greater than 128 µg/mL. The MIC ([1]; strain KPN UFR219, genotype SHV-12, CTX-M-15) was greater than 128 µg/mL, the MIC ([1]; strain KPN UFR220, genotype TEM-1, SHV-12, DHA-1) was greater than 128 µg/mL and the MIC ([1]; strain KPN UFR221, genotype TEM-1, SHV-11, CTX-M-14, DHA-1) was greater than 128 µg/mL. The MIC ([1]; strain KPN UFR229O, genotype SHV-12, VIM-1, antibiotic alone) was greater than 128 µg/mL, the MIC [2] was greater than 128 µg/mL and the “MIC ATB in combination” value [2] was greater than 128 µg/mL. For the same molecule, the MIC ([2]; strain KOX UFR21, genotype TEM-1, CTX-M-15, OXA-48) was greater than 256 µg/mL, the MIC ([2]; strain KOX UFR223, genotype SHV-11, OXA-48) was greater than 128 µg/mL and the MIC ([2]; strain KOX UFR224, genotype CTX-M-15, OXA-48) was greater than 128 µg/mL. The MIC [3] was greater than 128 µg/mL, the “MIC ATB in combination” value [3] was greater than 128 µg/mL and the MIC ([3]; strain MMO 200321, genotype TEM-1, CTX-M-15, OXA-1) was greater than 256 µg/mL. It also gave an MIC ([3]; strain MMO UFR144, genotype TEM-1, CTX-M-15) greater than 128 µg/mL, an MIC ([3]; strain MMO UFR240, genotype CTX-M-9) greater than 128 µg/mL and an MIC ([3]; strain MMO UFR241, genotype TEM-1, CTX-M-15) greater than 128 µg/mL. The MIC ([3]; strain MMO UFR242, genotype TEM-52) was greater than 128 µg/mL, the “MIC ATB in combination” value ([4]; CFR UFR10, AF2 @ 8 μg/mL) was 1 µg/mL and the “MIC ATB in combination” value ([4]; CFR UFR10, CLA @ 4 μg/mL) was greater than 128 µg/mL. For the same molecule, the “MIC ATB in combination” value ([4]; CFR UFR11, AF2 @ 8 μg/mL) was greater than 128 µg/mL, the “MIC ATB in combination” value ([4]; CFR UFR11, CLA @ 4 μg/mL) was greater than 128 µg/mL and the “MIC ATB in combination” value ([4]; CFR UFR37, AF2 @ 8 μg/mL) was less than 0.25 µg/mL. For the same molecule, the “MIC ATB in combination” value ([4]; CFR UFR37, CLA @ 4 μg/mL) was greater than 128 µg/mL, the “MIC ATB in combination” value ([4]; CFR UFR83, AF2 @ 8 μg/mL) was greater than 128 µg/mL and the “MIC ATB in combination” value ([4]; CFR UFR83, CLA @ 4 μg/mL) was greater than 128 µg/mL. For the same molecule, the “MIC ATB in combination” value ([4]; CFR UFR146, CLA @ 4 μg/mL) was greater than 128 µg/mL, the “MIC ATB in combination” value ([4]; CFR UFR248, CLA @ 4 μg/mL) was greater than 128 µg/mL and the “MIC ATB in combination” value ([4]; CFR UFR249, CLA @ 4 μg/mL) was greater than 128 µg/mL. For the same molecule, the “MIC ATB in combination” value ([4]; CFR UFR250, CLA @ 4 μg/mL) was 128 µg/mL, the MIC ([4]; strain CFR UFR10, genotype OXA-48) was greater than 256 µg/mL and the MIC ([4]; strain CFR UFR11, genotype TEM-1, OXA-1, OXA-48) was greater than 256 µg/mL. It also gave an MIC ([4]; strain CFR UFR37, genotype TEM-1, CTX-M-15, NDM-1) greater than 256 µg/mL, an MIC ([4]; strain CFR UFR83, genotype TEM-3, AmpC) greater than 256 µg/mL and an MIC ([4]; strain CFR UFR146, genotype TEM-1, KPC-2) greater than 128 µg/mL. For the same molecule, the MIC ([4]; strain CFR UFR147, genotype TEM-1, CTX-M-15, OXA-1, OXA-181, OXA-10, OXA-9, NDM-1, ArmA, dfrA12, aadA2, antibiotic alone) was greater than 128 µg/mL, the “MIC ATB in combination” value ([4]; strain CFR UFR147, with CLA @ 4 μg/mL) was greater than 128 µg/mL and the MIC ([4]; strain CFR UFR148, genotype TEM-1, TEM-2, CTX-M-15, NDM-1, antibiotic alone) was greater than 128 µg/mL. The “MIC ATB in combination” value ([4]; strain CFR UFR148, with CLA @ 4 μg/mL) was greater than 128 µg/mL, the MIC ([4]; strain CFR UFR248, genotype CTX-M-15) was greater than 128 µg/mL and the MIC ([4]; strain CFR UFR249, genotype TEM-1, CTX-M-15) was greater than 128 µg/mL. For the same molecule, the MIC ([4]; strain CFR UFR250, genotype TEM-1, SHV-28, CTX-M-15) was greater than 128 µg/mL, the MIC ([4]; strain CFR UFR251, genotype SHV-11, VIM-1, antibiotic alone) was greater than 128 µg/mL and the “MIC ATB in combination” value ([4]; strain CFR UFR251, with CLA @ 4 μg/mL) was greater than 128 µg/mL. For the same molecule, the MIC ([4]; strain CFR UFR252, genotype VIM-2, antibiotic alone) was greater than 128 µg/mL, the “MIC ATB in combination” value ([4]; strain CFR UFR252, with CLA @ 4 μg/mL) was greater than 128 µg/mL and the MIC ([4]; strain CFR UFR253, genotype TEM-1, SHV-12, OXA-48) was greater than 128 µg/mL. For the same molecule, the “MIC ATB in combination” value ([4]; strain CFR UFR253, with CLA @ 4 μg/mL) was greater than 128 µg/mL, the MIC ([4]; strain CFR UFR254, genotype VEB-1b, OXA-48, qnrA) was greater than 128 µg/mL and the “MIC ATB in combination” value ([4]; strain CFR UFR254, with CLA @ 4 μg/mL) was greater than 128 µg/mL. For the same molecule, the “MIC ATB in combination” value [5] was greater than 128 µg/mL, the MIC ([5]; strain PRE UFR96, genotype CTX-M-15, NDM-1) was greater than 128 µg/mL and the MIC ([5]; strain PRE UFR97, genotype TEM-1, NDM-1) was greater than 128 µg/mL. It also gave an MIC ([5]; strain PRE UFR99, genotype OXA-1, OXA-181) greater than 128 µg/mL and an MIC ([5]; strain PRE UFR236, genotype TEM-1, OXA-48) greater than 128 µg/mL.
